Laboratory results: patent US12059420B2 (BRISTOL-MYERS SQUIBB COMPANY, priority 2018, dated 2024)
Structures can show the parent of a compound that is named as a salt.

Each molecule was assayed against T1, human IDO1 (Homo sapiens, UniProt P14902) (assay: IDO inhibition assay in HEK293 cells stably expressing human IDO1 (kynurenine production, Ehrlich reagent, absorbance 490 nm)). Details: 20 hours incubation with compound, 500 nM reference standard = 100% inhibition, read-out: IDO1 HEK Human IC50.
T1 construct: expressed in transfected cells
Type: cell-based
Description: HEK293 cells were transfected with a pCDNA-based mammalian expression vector harboring human IDO1 cDNA (NM 002164.2) by electroporation. They were cultured in medium (DMEM with 10% FBS) containing 1 mg/ml G418 for two weeks. Clones of HEK293 cells that stably expressed human IDO1 protein were selected and expanded for IDO inhibition assay.
The human IDO1/HEK293 cells were seeded at 10,000 cells per 50 μL per well with RPMI/phenol red free media contains 10% FBS in a 384-well black wall clear bottom tissue culture plate (Matrix Technologies LLC) 100 nL of certain concentration of compound was then added to each well using ECHO liquid handling systems. The cells were incubated for 20 hours in 37° C. incubator with 5% CO2.
The compound treatments were stopped by adding trichloroacetic acid (Sigma-Aldrich) to a final concentration at 0.2%. The cell plate was further incubated at 50° C. for 30 minute. The equal volume supernatant (20 μL) and 0.2% (w/v) Ehrlich reagent (4-dimethylaminobenzaldehyde, Sigma-Aldrich) in glacial acetic acid were mixed in a new clear bottom 384-well plate. This plate was then incubated at RT for 30 minute. The absorbance at 490 nm was measured on Envision plate reader.
Compound IC50 values were calculated using the counts of 500 nM of a reference standard treatment as one hundred percent inhibition, and counts of no compound but DMSO treatment as zero percent inhibition.

T1 sequence (P14902 whole entry): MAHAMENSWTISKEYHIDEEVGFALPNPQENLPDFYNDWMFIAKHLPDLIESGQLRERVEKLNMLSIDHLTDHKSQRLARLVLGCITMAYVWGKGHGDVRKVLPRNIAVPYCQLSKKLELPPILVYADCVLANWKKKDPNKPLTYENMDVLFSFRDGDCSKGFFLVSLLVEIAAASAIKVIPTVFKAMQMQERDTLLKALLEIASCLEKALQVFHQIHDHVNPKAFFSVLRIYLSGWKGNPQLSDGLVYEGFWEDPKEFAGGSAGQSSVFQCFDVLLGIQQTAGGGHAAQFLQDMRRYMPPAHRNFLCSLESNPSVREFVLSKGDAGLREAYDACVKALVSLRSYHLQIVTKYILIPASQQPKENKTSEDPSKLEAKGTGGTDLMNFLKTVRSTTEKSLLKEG

| IC50 [nM] | SMILES |
| --- | --- |
| 139 | CCCN(Cc1ccccc1)c1cc(Nc2nc(-c3ccccc3)cs2)cc(-c2ccccc2-c2nnn[nH]2)n1 [Example 59, 6-(2-(1H-tetrazol-5-yl)phenyl)-N2-benzyl-N4-(4-phenylthiazol-2-yl)-N2-propylpyridine-2,4-diamine] |
| 831 | CCCN(Cc1ccccc1)c1cc(Nc2nnc(C)s2)cc(-c2ccccc2-c2nnn[nH]2)n1 [Example 60, 6-(2-(1H-tetrazol-5-yl)phenyl)-N2-benzyl-N4-(5-methyl-1,3,4-thiadiazol-2-yl)-N2-propylpyridine-2,4-diamine] |
| 446 | CCCN(Cc1ccccc1)c1cc(Nc2ccn(C)n2)cc(-c2ccccc2-c2nnn[nH]2)n1 [Example 61, 6-(2-(1H-tetrazol-5-yl)phenyl)-N2-benzyl-N4-(1-methyl-1H-pyrazol-3-yl)-N2-propylpyridine-2,4-diamine] |
| 56.8 | CCCN(Cc1ccccc1)c1cc(Nc2nc3ccc(F)cc3s2)cc(-c2ccccc2-c2nnn[nH]2)n1 [Example 62, 6-(2-(1H-tetrazol-5-yl)phenyl)-N2-benzyl-N4-(6-fluorobenzo[d]thiazol-2-yl)-N2-propylpyridine-2,4-diamine] |
| 161 | CCCN(CC1CC1)c1nc(NC(=O)Cc2ccc(C)cc2)cc(-c2ccccc2-c2nnn[nH]2)n1 [Example 64, N-(6-(2-(1H-tetrazol-5-yl)phenyl)-2-((cyclopropylmethyl)(propyl)amino)pyrimidin-4-yl)-2-(p-tolyl)acetamide, TFA] |
| 4530 | CCCN(CC1CC1)c1nc(NC(=O)Nc2ccc(F)cc2)cc(-c2ccccc2-c2nnn[nH]2)n1 [Example 65, 1-(6-(2-(1H-tetrazol-5-yl)phenyl)-2-((cyclopropylmethyl)(propyl)amino)pyrimidin-4-yl)-3-(4-fluorophenyl)urea, TFA] |
| 440 | CCCN(CC1CC1)c1nc(NC(=O)Nc2ccc(C)cc2)cc(-c2ccccc2-c2nnn[nH]2)n1 [Example 66, 1-(6-(2-(1H-tetrazol-5-yl)phenyl)-2-((cyclopropylmethyl)(propyl)amino)pyrimidin-4-yl)-3-(p-tolyl)urea, TFA] |
| 2470 | CCCN(CC1CC1)c1nc(NC(=O)Nc2ccc(OC(F)(F)F)cc2)cc(-c2ccccc2-c2nnn[nH]2)n1 [Example 67, 1-(6-(2-(1H-tetrazol-5-yl)phenyl)-2-((cyclopropylmethyl) (propyl)amino)pyrimidin-4-yl)-3-(4-(trifluoromethoxy)phenyl)urea] |
| 324 | Cc1ccc(CC(=O)Nc2cc(-c3ccccc3-c3nnn[nH]3)nc(N3CCCc4ccccc43)c2)cc1 [Example 68, N-(2-(2-(1H-tetrazol-5-yl)phenyl)-6-(3,4-dihydroquinolin-1(2H)-yl)pyridin-4-yl)-2-(p-tolyl)acetamide, TFA] |
| 134 | CC(C)CN(Cc1ccccc1)c1cc(NC(=O)Nc2ccc(F)cc2)cc(-c2ccccc2-c2nnn[nH]2)n1 [Example 69, 1-(2-(2-(1H-tetrazol-5-yl)phenyl)-6-(benzyl(isobutyl)amino)pyridin-4-yl)-3-(4-fluorophenyl)urea, TFA] |
| 422 | CCCN(CC1CC1)c1cc(NC(=O)Cc2ccc(F)cc2F)cc(-c2ccccc2-c2nnn[nH]2)n1 [Example 70, N-(2-(2-(1H-tetrazol-5-yl)phenyl)-6-((cyclopropylmethyl)(propyl)amino)pyridin-4-yl)-2-(2,4-difluorophenyl)acetamide, TFA] |
| 32.2 | CCCN(Cc1ccccc1)c1cc(NC(=O)Nc2ccc(F)cc2F)cc(-c2ccccc2-c2nnn[nH]2)n1 [Example 71, 1-(2-(2-(1H-tetrazol-5-yl)phenyl)-6-(benzyl(propyl)amino)pyridin-4-yl)-3-(2,4-difluorophenyl)urea, TFA] |
| 8.5 | CCCN(Cc1ccccc1)c1cc(NC(=O)Nc2ccc(Cl)cc2F)cc(-c2ccccc2-c2nnn[nH]2)n1 [Example 72, 1-(2-(2-(1H-tetrazol-5-yl)phenyl)-6-(benzyl(propyl)amino)pyridin-4-yl)-3-(4-chloro-2-fluorophenyl)urea, TFA] |
| 334 | CCCN(CC1CC1)c1cc(NC(=O)Cc2ccc(F)cc2)cc(-c2ccccc2-c2nnn[nH]2)n1 [Example 73, N-(2-(2-(1H-tetrazol-5-yl)phenyl)-6-((cyclopropylmethyl)(propyl)amino)pyridin-4-yl)-2-(4-fluorophenyl)acetamide, TFA] |
| 75.6 | CC(C)CN(Cc1ccccc1)c1cc(Nc2ncc(C(F)(F)F)cn2)cc(-c2ccccc2-c2nnn[nH]2)n1 [Example 74, 6-(2-(1H-tetrazol-5-yl)phenyl)-N2-benzyl-N2-isobutyl-N4-(5-(trifluoromethyl)pyrimidin-2-yl)pyridine-2,4-diamine, TFA] |
| 27.9 | CCCN(Cc1ccc(F)cc1)c1cc(NC(=O)Cc2ccc(C)cc2F)cc(-c2ccccc2-c2nnn[nH]2)n1 [Example 75, N-(2-(2-(1H-tetrazol-5-yl)phenyl)-6-((4-fluorobenzyl)(propyl)amino)pyridin-4-yl)-2-(2-fluoro-4-methylphenyl)acetamide, TFA] |
| 998 | Cc1ccc(CC(=O)Nc2cc(-c3ccccc3-c3nnn[nH]3)nc(N3CCN(Cc4ccccc4)C(=O)C3)c2)cc1 [Example 76, N-(2-(2-(1H-tetrazol-5-yl)phenyl)-6-(4-benzyl-3-oxopiperazin-1-yl)pyridin-4-yl)-2-(p-tolyl)acetamide, TFA] |
| 2090 | Cc1ccc(CC(=O)Nc2cc(-c3ccccc3-c3nnn[nH]3)nc(N(CC(C)C)C3CCOCC3)c2)cc1 [Example 77, N-(2-(2-(1H-tetrazol-5-yl)phenyl)-6-(isobutyl(tetrahydro-2H-pyran-4-yl)amino)pyridin-4-yl)-2-(p-tolyl)acetamide, TFA] |
| 8.2 | Cc1ccc(NC(=O)Nc2cc(-c3ccccc3-c3nnn[nH]3)nc(N(Cc3ccc(F)cc3)CC(C)C)c2)cc1 [Example 78, 1-(2-(2-(1H-tetrazol-5-yl)phenyl)-6-((4-fluorobenzyl)(isobutyl)amino)pyridin-4-yl)-3-(p-tolyl)urea, TFA] |
| 18.3 | Cc1ccc(CC(=O)Nc2cc(-c3ccccc3-c3nnn[nH]3)nc(N(Cc3ccccc3)CC(C)C)c2)c(F)c1 [Example 79, N-(2-(2-(1H-tetrazol-5-yl)phenyl)-6-(benzyl(isobutyl)amino)pyridin-4-yl)-2-(2-fluoro-4-methylphenyl)acetamide, TFA] |
| 350 | CC(C)CN(Cc1ccccc1)c1cc(NC(=O)Cc2ccc(F)cc2)cc(-c2ccccc2-c2nnn[nH]2)n1 [Example 80, N-(2-(2-(1H-tetrazol-5-yl)phenyl)-6-(benzyl(isobutyl)amino)pyridin-4-yl)-2-(4-fluorophenyl)acetamide, TFA] |
| 731 | CCCN(CC1CC1)c1cc(NC(=O)Cc2ccc(C)cc2F)cc(-c2ccccc2-c2nnn[nH]2)n1 [Example 82, N-(2-(2-(1H-tetrazol-5-yl)phenyl)-6-((cyclopropylmethyl)(propyl)amino)pyridin-4)-2-(2-fluoro-4-methylphenyl)acetamide, TFA] |
| 158 | CCCN(CC1CC1)c1cc(NC(=O)Nc2ccc(Cl)cc2Cl)cc(-c2ccccc2-c2nnn[nH]2)n1 [Example 83, 1-(2-(2-(1H-tetrazol-5-yl)phenyl)-6-((cyclopropylmethyl)(propyl)amino)pyridin-4-yl)-3-(2,4-dichlorophenyl)urea, TFA] |
| 373 | CCCN(CC1CC1)c1cc(Nc2ncc(C(F)(F)F)cn2)cc(-c2ccccc2-c2nnn[nH]2)n1 [Example 84] |
| 89.8 | CCCN(Cc1ccc(F)cc1)c1cc(NC(=O)Cc2ccc(C)cc2)cc(-c2ccccc2-c2nnn[nH]2)n1 [Example 85, N-(2-(2-(1H-tetrazol-5-yl)phenyl)-6-((4-fluorobenzyl)(propyl)amino)pyridin-4-yl)-2-(p-tolyl)acetamide, TFA] |
| 8.6 | CCCN(Cc1ccc(F)cc1)c1cc(NC(=O)Nc2ccc(Cl)cc2Cl)cc(-c2ccccc2-c2nnn[nH]2)n1 [Example 86, 1-(2-(2-(1H-tetrazol-5-yl)phenyl)-6-((4-fluorobenzyl)(propyl)amino)pyridin-4-yl)-3-(2,4-dichlorophenyl)urea] |
| 40.7 | Cc1ccc(CC(=O)Nc2cc(-c3ccccc3-c3nnn[nH]3)nc(N(Cc3ccccc3)CC(C)C)c2)cc1 [Example 87, N-(2-(2-(1H-tetrazol-5-yl)phenyl)-6-(benzyl(isobutyl)amino)pyridin-4-yl)-2-(p-tolyl)acetamide, TFA] |
| 109 | CCCN(Cc1ccccc1)c1cc(NC(=O)Nc2ccccc2F)cc(-c2cc(C)ccc2-c2nnn[nH]2)n1 [Example 88, 1-(2-(benzyl(propyl)amino)-6-(5-methyl-2-(1H-tetrazol-5-yl)phenyl)pyridin-4-yl)-3-(2-fluorophenyl)urea, TFA] |
| 150 | Cc1ccc(CC(=O)Nc2cc(-c3cc(F)ccc3-c3nnn[nH]3)nc(N(Cc3ccccc3)CC(C)C)c2)cc1 [Example 89, N-(2-(benzyl(isobutyl)amino)-6-(5-fluoro-2-(1H-tetrazol-5-yl)phenyl)pyridin-4-yl)-2-(p-tolyl)acetamide, TFA] |
| 40.9 | Cc1ccc(CC(=O)Nc2cc(-c3ccccc3-c3nnn[nH]3)nc(N(Cc3ccc(F)cc3)CC(C)C)c2)cc1 [Example 90, N-(2-(2-(1H-tetrazol-5-yl)phenyl)-6-((4-fluorobenzyl)(isobutyl)amino)pyridin-4-yl)-2-(p-tolyl)acetamide, TFA] |
